Experimental data reported in US20110178064A1, “SPIRO CONDENSED […] DERIVATIVES FOR USE AS ANTIBACTERIAL” (A[…]&D, priority 2007, published 2011).
pIC50: −log10 of the molar value.

Biological target: Escherichia coli DNA gyrase A/B tetramer (Escherichia coli, UniProt P0AES4+P0AES6)
Assay: DNA gyrase supercoiling activity fluorescence polarisation assay
Assay type: biochemical
Experimental: The supercoiling reactions may be quenched by the addition of 10 microliters/well of 40 nM oligodeoxynucleotide probe in 3× triplex-forming buffer consisting of 150 mM NaCl, and 150 mM sodium acetate at pH 3.5. The oligodeoxynucleotide probe may be 5′-BODIPY-FL-labeled […]. After 60 minutes, the fluorescence anisotropy of the BODIPY-FL may be measured in a Tecan Ultra plate reader, using 485 nm excitation and 535 nm emission filters equipped with polarizers. The IC50 may be determined by nonliner regression using two control reactions. The first contains no test compound but 0.8% DMSO (100% activity) while the second control reaction contains 5 uM Ciprofloxacin and 0.8% DMSO (0% activity).

Escherichia coli DNA gyrase A/B tetramer, sequence (P0AES4 whole entry, one chain of several): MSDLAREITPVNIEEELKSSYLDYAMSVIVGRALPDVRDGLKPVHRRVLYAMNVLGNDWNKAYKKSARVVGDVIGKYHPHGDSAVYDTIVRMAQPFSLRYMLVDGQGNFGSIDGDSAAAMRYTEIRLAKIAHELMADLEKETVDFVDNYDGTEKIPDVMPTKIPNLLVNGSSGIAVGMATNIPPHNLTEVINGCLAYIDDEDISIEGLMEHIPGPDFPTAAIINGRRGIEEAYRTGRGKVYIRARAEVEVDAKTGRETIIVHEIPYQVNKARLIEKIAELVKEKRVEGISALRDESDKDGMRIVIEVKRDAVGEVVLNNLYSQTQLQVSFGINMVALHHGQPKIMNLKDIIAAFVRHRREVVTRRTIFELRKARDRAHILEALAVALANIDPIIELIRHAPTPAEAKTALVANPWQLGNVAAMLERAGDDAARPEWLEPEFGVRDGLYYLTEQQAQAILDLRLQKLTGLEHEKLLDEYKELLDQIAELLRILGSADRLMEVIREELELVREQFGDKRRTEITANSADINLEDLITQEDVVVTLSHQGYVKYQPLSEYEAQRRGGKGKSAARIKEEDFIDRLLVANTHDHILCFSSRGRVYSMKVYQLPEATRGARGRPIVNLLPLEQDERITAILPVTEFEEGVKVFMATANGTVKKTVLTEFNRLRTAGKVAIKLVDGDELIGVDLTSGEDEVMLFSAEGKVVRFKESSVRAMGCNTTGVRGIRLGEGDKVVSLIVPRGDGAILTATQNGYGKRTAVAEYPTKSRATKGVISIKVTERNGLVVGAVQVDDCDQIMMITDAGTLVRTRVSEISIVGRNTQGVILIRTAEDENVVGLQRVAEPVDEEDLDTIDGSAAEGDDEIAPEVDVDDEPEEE

Compound `C[C@@H]1CN2c3nc(F)c(C#Cc4cnccn4)cc3CC3(C(=O)NC(=O)NC3=O)[C@H]2[C@H](C)O1` (racemic) [Example 22, (6aS,7S,9R)-rel-2-Fluoro-7,9-dimethyl-3-(pyrazin-2-ylethynyl)-6a,7,9,10-tetrahydro-1′H,5H-spiro[[4]oxazino[4,3-a][1,8]naphthyridine-6,5′-pyrimidine]-2′,4′,6′(3′H)-trione] has a pIC50 of 5.40.

`C[C@@H]1CN2c3ncc(-c4nccn4C)cc3CC3(C(=O)NC(=O)NC3=O)[C@H]2[C@H](C)O1` (racemic) [Example 32, (6aS,7S,9R)-rel-7,9-Dimethyl-3-(1-methyl-1H-imidazol-2-yl)-6a., 7,9,10-tetrahydro-2′H,5H-spiro[1,4-oxazino[4,3-a][1,8]naphthyridine-6,5′-pyrimidine]-2′,4′,6′(1′H,3′H)-trione] showed a pIC50 of 4.62.

`Cc1cscc1-c1cnc2c(c1)CC1(C(=O)NC(=O)NC1=O)[C@H]1[C@H](C)O[C@H](C)CN21` (racemic) [Example 34, (6aS,7S,9R)-rel-7,9-Dimethyl-3-(4-methylthiophen-3-yl)-6a,7,9,10-tetrahydro-2′H,5H-spiro[1,4-oxazino[4,3-a][1,8]naphthyridine-6,5′-pyrimidine]-2′,4′,6′(1′H,3′H-trione] was tested, and the pIC50 was 4.82.

Work on `C[C@@H]1CN2c3cnc(-c4cc5ccccc5o4)cc3CC3(C(=O)NC(=O)NC3=O)[C@H]2[C@H](C)O1` (racemic) [Example 53, (6aS,7S,9R)-rel-3-(1-Benzofuran-2-yl)-7,9-dimethyl-6a,7,9,10-tetrahydro-2′H,5H-spiro[1,4-oxazino[4,3-a][1,7]napthyridine-6,5′-pyrimidine]2′,4′,6′(1′H,3′H)-trione] yielded a pIC50 of 4.80.

For `C[C@@H]1CN2c3cnc(-c4ccco4)cc3CC3(C(=O)NC(=O)NC3=O)[C@H]2[C@H](C)O1` (racemic) [Example 54, (6aS,7S,9R)-rel-3-(Furan-2-yl)-7,9-dimethyl-6a,7,9,10-tetrahydro-2′H,5H-spiro[1,4-oxazino[4,3-a][1,7]naphthyridine-6,5′-pyrimidine]-2′,4′,6′(1′H3″H)-trione], the pIC50 was < 4.08.

With `COc1ccncc1-c1cc2c(cn1)N1C[C@@H](C)O[C@@H](C)[C@@H]1C1(C2)C(=O)NC(=O)NC1=O` (racemic) [Example 58, (6aS,7S,9R)-rel-3-(4-Methoxypyridin-3-yl)-7,9-dimethyl-6a,7,9,10-tetrahydro-2′H,5H-spiro[1,4-oxazino[4,3-a][1,7]naphthyridine-6,5′-pyrimidine]-2′,4′,6′(1″H3″H)-trione] the pIC50 was < 4.08.

For `C[C@@H]1CN2c3cnc(-c4cccnc4)cc3CC3(C(=O)NC(=O)NC3=O)[C@H]2[C@H](C)O1` (racemic) [Example 61, (6aS,7S,9R)-rel-7,9-Dimethyl-3-pyridin-3-yl)-6a,7,9,10-tetrahydro-2′H,5H-spiro[1,4-oxazino[4,3-a][1,7]naphthyridine-6,5′-pyrimidine]-2′,4′,6′(1′H,3′H)-trione], the pIC50 was 4.74.

In the case of `C[C@@H]1CN2c3ccc(-c4ccccn4)nc3CC3(C(=O)NC(=O)NC3=O)[C@H]2[C@H](C)O1` (racemic) [Example 69, (2R,4S,4aS)-rel-2,4-Dimethyl-8-(pyridin-2-yl)-1,2,4,4a-tetrahydro-2′H,6H-spiro[1,4-oxazino[4,3-a][1,5]naphthyridine-5,5′-pyrimidine]-2′,4′,6′(1′H3″H)-trione], the pIC50 was 4.54.

For `C[C@@H]1CN2c3cnc(-c4nccs4)cc3CC3(C(=O)NC(=O)NC3=O)[C@H]2[C@H](C)O1` (racemic) [Example 86, (6aS,7S,9R)-rel-7,9-Dimethyl-3-(1,3-thiazol-2-yl)-6a., 7,9,10-tetrahydro-2′H,5H-spiro[1,4-oxazino[4,3-a][1,7]naphthyridine-6,5′-pyrimidine]-2′,4′,6′(1′H,3′H)-trione], the pIC50 was 4.21.

Work on `COc1nc2c(cc1-c1nnc(C)s1)CC1(C(=O)NC(=O)NC1=O)[C@H]1[C@H](C)O[C@H](C)CN21` (racemic) [Example 119, (6aS,7S,9R)-rel-2-Methoxy-7,9-dimethyl-3-(5-methyl-1,3,4-thiadiazol-2-yl)-6a,7,9,10-tetrahydro-1′H,5H-spiro[[1,4]oxazino[4,3-a][1,8]naphthyridine-6,5′-pyrimidine]-2′., 4′,6′(3′H)-trione] yielded a pIC50 of 4.68.

`C[C@@H]1CN2c3ncc(-c4nncs4)cc3CC3(C(=O)NC(=O)NC3=O)[C@H]2[C@H](C)O1` (relative stereo) [Example 1, (6aS,7S,9R)-rel-7,9-Dimethyl-3-(1,3,4-thiadiazol-2-yl)-6a,7,9,10-tetrahydro-2′H,5H-spiro[1,4-oxazino[4,3-a][1,8]naphthyridine-6,5′-pyrimidine]-2′,4′,6′(1′H,3′H)-trione] gave a pIC50 of 5.15.

`C[C@@H]1CN2c3cnc(Br)cc3CC3(C(=O)NC(=O)NC3=O)[C@H]2[C@H](C)O1` (relative stereo) [Example 3, (6aS,7S,9R)-rel-3-Bromo-7,9-dimethyl-6a,7,9,10-tetrahydro-1′H,5H-spiro[[1,4]oxazino[4,3-a][1,7]naphthyridine-6,5′-pyrimidine]-2′,4′,6′(3′H)-trione] showed a pIC50 of 4.96.

With `C[C@@H]1CN2c3cncc(F)c3CC3(C(=O)NC(=O)NC3=O)[C@H]2[C@H](C)O1` (relative stereo) [Example 6, (6aS,7S,9R)-rel-4-Fluoro-7,9-dimethyl-6a,7,9,10-tetrahydro-1′H,5H-spiro[[1,4]oxazino[4,3-a][1,7]naphthyridine-6,5′-pyrimidine]-2′,4′,6′(3′H)-trione] the pIC50 was < 4.08.

`C[C@@H]1CN2c3ncc(Br)cc3CC3(C(=O)NC(=O)NC3=O)[C@H]2[C@H](C)O1` (relative stereo) [Example 9, (6aS,7S,9R)-rel-3-Bromo-7,9-dimethyl-6a,7,9,10-tetrahydro-1′H,5H-spiro[[1,4]oxazino[4,3-a][1,8]naphthyridine-6,5′-pyrimidine]-2′,4′,6′(3′H)-trione] was tested, and the pIC50 was 5.52.

Work on `C[C@@H]1CN2c3c(ccnc3Cl)CC3(C(=O)NC(=O)NC3=O)[C@H]2[C@H](C)O1` (relative stereo) [Example 12, (6aS,7S,9R)-rel-1-chloro-7,9-dimethyl-6a,7,9,10-tetrahydro-1′H,5H-spiro[[1,4]oxazino[4,3-a][1,7]naphthyridine-6,5′-pyrimidine]-2′,4′,6′(3′H)-trione] yielded a pIC50 of 4.68.

Compound `C[C@@H]1CN2c3nc(F)c(I)cc3CC3(C(=O)NC(=O)NC3=O)[C@H]2C(=O)N1` (relative stereo) [Example 14, (6aS,9R)-rel-2-Fluoro-3-iodo-9-methyl-9,10-dihydro-1′H-spiro[pyrazino[1,2-a][1,8]naphthyridine-6,5′-pyrimidine]-2′,4′,6′,7(3′H,5H,6aH,8H)-tetraone] has a pIC50 of 4.96.

`Cc1nnc(-c2cc3c(nc2F)N2C[C@@H](C)O[C@@H](C)[C@@H]2C2(C3)C(=O)NC(=O)NC2=O)s1` (relative stereo) [Example 16, (6aS,7S,9R)-rel-2-Fluoro-7,9-dimethyl-3-(5-methyl-1,3,4-thiadiazol-2-yl)-6a,7,9,10-tetrahydro-1′H,5H-spiro[[1,4]oxazino[4,3-a][1,8]naphthyridine-6,5′-pyrimidine]-2′,4′,6′(3′H)-trione] was tested, and the pIC50 was 5.15.

For `C[C@@H]1CN2c3nc(F)ccc3CC3(C(=O)NC(=O)NC3=O)[C@H]2[C@H](C)O1` (relative stereo) [Example 20, (6aS,7S,9R)-rel-2-Fluoro-7,9-dimethyl-6a,7,9,10-tetrahydro-1′H,5H-spiro[[1,4]oxazino[4,3-a][1,8]naphthyridine-6,5′-pyrimidine]-2′,4′,6′(3′H)-trione], the pIC50 was 4.60.

Compound `C[C@@H]1CN2c3nc(F)c(C#Cc4ccccn4)cc3CC3(C(=O)NC(=O)NC3=O)[C@H]2[C@H](C)O1` (relative stereo) [Example 21, (6aS,7S,9R)-rel-2-fluoro-7,9-dimethyl-3-(pyridin-2-ylethynyl)-6a,7,9,10-tetrahydro-1′H,5H-spiro[[1,4]oxazino[4,3-a][1,8]naphthyridine-6,5′-pyrimidine]-2′,4′,6′(3′H)-trione] has a pIC50 of 5.00.

In the case of `COc1ccc(C#Cc2cc3c(nc2F)N2C[C@@H](C)O[C@@H](C)[C@@H]2C2(C3)C(=O)NC(=O)NC2=O)cc1` (relative stereo) [Example 23, (6aS,7S,9R)-rel-2-Fluoro-3-((4-methoxyphenyl)ethynyl)-7,9-dimethyl-6a,7,9,10-tetrahydro-1′H,5H-spiro[[1,4]oxazino[4,3-a][1,8]naphthyridine-6,5′-pyrimidine]-2′,4′,6′(3′H)-trione], the pIC50 was 5.22.

`Cc1nnc(-c2cnc3c(c2)CC2(C(=O)NC(=O)NC2=O)[C@H]2[C@H](C)O[C@H](C)CN32)s1` (relative stereo) [Example 24, (6aS,7S,9R)-rel-7,9-Dimethyl-3-(5-methyl-1,3,4-thiadiazol-2-yl)-6a,7,9,10-tetrahydro-2′H,5H-spiro[1,4-oxazino[4,3-a][1,8]naphthyridine-6,5′-pyrimidine]-2′,4′,6′(1′H,3′H)-trione] was tested, and the pIC50 was < 5.30.

`C[C@@H]1CN2c3ncc(-c4cncs4)cc3CC3(C(=O)NC(=O)NC3=O)[C@H]2[C@H](C)O1` (relative stereo) [Example 26, (6aS,7S,9R)-rel-7,9-Dimethyl-3-(1,3-thiazol-5-yl)-6a,7,9,10-tetrahydro-2′H,5H-spiro[1,4-oxazino[4,3-a][1,8]naphthyridine-6,5′-pyrimidine]-2′,4′,6′(1′H,3′H)-trione] was tested, and the pIC50 was 5.40.

Work on `C[C@@H]1CN2c3ncc(-c4cc5ccccc5s4)cc3CC3(C(=O)NC(=O)NC3=O)[C@H]2[C@H](C)O1` (relative stereo) [Example 28, (6aS,7S,9R)-rel-3-(1-Benzothiophen-2-yl)-7,9-dimethyl-6a,7,9,10-tetrahydro-2′H,5H-spiro[1,4-oxazino[4,3-a][1,8]naphthyridine-6,5′-pyrimidine]-2′,4′,6′(1′H,3′H)-trione] yielded a pIC50 of 5.70.
